Patent US20240368163A1, “COMPOUNDS AND METHODS FOR MODULATING SPLICING” (REMIX THERAPEUTICS INC., priority 2021, published 2024)
Read-outs that look alike come from different tables or passages of the source.

Key:
Assay type in all cases: cell-based, human
[1] = tested on: HTT; assay: Splicing RT-qPCR assay, HTT mRNA canonical junction (CJ) and alternative junction (AJ); settings: for AC50: increase in AJ mRNA
Summary of the method: (§1)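 Splicing switch read by one-step RT-qPCR of canonical and alternative exon junctions, housekeeper-normalized (GAPDH/GUSB/PPIA), 2^(−ΔΔCt) vs DMSO as percent response. Cells (A673 or K562) dosed 24 h, 11 points 3-fold from 10 uM, DMSO ≤0.25%.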

[2] = tested on: MYB; assay: Splicing RT-qPCR assay, MYB mRNA canonical junction (CJ) and alternative junction (AJ); settings: for AC50: increase in AJ mRNA
Summary of the method: as §1

[3] = tested on: SMN2; assay: Splicing RT-qPCR panel, SMN2 canonical junction (CJ) mRNA; settings: RT-qPCR panel, canonical junction mRNA, compound concentration having 50% response in CJ decrease, read-out: SMN2 IC50 (decrease in CJ mRNA levels)
Summary of the method: as §1

[4] = tested on: Target C; assay: Splicing RT-qPCR panel, Target C canonical junction (CJ) mRNA; settings: RT-qPCR panel, canonical junction mRNA, compound concentration having 50% response in CJ decrease, read-out: Target C IC50 (decrease in CJ mRNA levels)
Summary of the method: as §1

[5] = tested on: MYB; assay: HiBiT protein abundance assay, MYB; settings: Table 13A, modified K562 cells
Summary of the method: (§2)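 Target abundance was measured as HiBiT luminescence after 24 h compound treatment of tagged K562 cells. Responses were normalized between unmodified K562 and DMSO-treated tagged cells, and IC50 taken at the 50% level of a 4PL curve.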

[6] = tested on: HTT; assay: HiBiT protein abundance assay, HTT; settings: Table 13A, modified K562 cells
Summary of the method: as §2

[7] = tested on: Target C; assay: HiBiT protein abundance assay, Target C; settings: Table 13A, modified K562 cells
Summary of the method: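 Cells carrying the HiBiT knock-in were plated at 10000 cells/well, dosed with compound (10-point, 3-fold, 10 μM top final) and incubated 24 hours at 37 °C. Lytic reagent was then added and luminescence read. Percent response fed a 4PL fit for IC50.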

[8] = Homo sapiens, 24 h, decrease in CJ mRNA, A673 or K562 cells, 24 hours treatment, RT-qPCR, read-out: HTT CJ IC50
[9] = Homo sapiens, 24 h, A673 or K562 cells, 24 hours treatment, RT-qPCR
[10] = Homo sapiens, RT-qPCR panel, canonical junction mRNA, compound concentration having 50% response in CJ decrease, read-out: HTT IC50 (decrease in CJ mRNA levels)
[11] = Homo sapiens, 24 h, decrease in CJ mRNA, A673 or K562 cells, 24 hours treatment, RT-qPCR, read-out: MYB CJ IC50
[12] = Homo sapiens, RT-qPCR panel, canonical junction mRNA, compound concentration having 50% response in CJ decrease, read-out: MYB IC50 (decrease in CJ mRNA levels)

Compound	IC50 [1, 8]	AC50 [1, 9]	IC50 [1, 10]	IC50 [2, 11]	AC50 [2, 9]	IC50 [2, 12]	IC50 ([3]; Homo sapiens)	IC50 ([4]; Homo sapiens)	IC50 ([5]; Homo sapiens, K562, 24 h)	IC50 ([6]; Homo sapiens, K562, 24 h)	IC50 ([7]; Homo sapiens, K562, 24 h)	IC50 ([1]; RT-qPCR panel, canonical junction mRNA, compound concentration having 50% response in CJ decrease, read-out: HTT IC50 (decrease in CJ mRNA levels))	IC50 ([1]; decrease in CJ mRNA, A673 or K562 cells, 24 hours treatment, RT-qPCR, read-out: HTT CJ IC50)	IC50 ([2]; RT-qPCR panel, canonical junction mRNA, compound concentration having 50% response in CJ decrease, read-out: MYB IC50 (decrease in CJ mRNA levels))	IC50 ([2]; decrease in CJ mRNA, A673 or K562 cells, 24 hours treatment, RT-qPCR, read-out: MYB CJ IC50)	IC50 [3]	IC50 [4]	IC50 ([5]; 24 hours)	IC50 ([6]; 24 hours)	IC50 ([7]; 24 hours)
CN(c1ccc(-c2ccc(-c3cnn(C)c(=O)c3)c3ncsc23)nn1)C1CC(C)(C)NC(C)(C)C1 [Compound 331, 2-methyl-5-(7-{6-[methyl(2,2,6,6-tetramethylpiperidin-4-yl)amino]pyridazin-3-yl}-1,3-benzothiazol-4-yl) pyridazin-3-one]	1000 to 10000 nM	1000 to 10000 nM	1000 to 10000 nM	1000 to 10000 nM	1000 to 10000 nM	1000 to 10000 nM	100 to 1000 nM	> 10000 nM	1000 to 10000 nM	100 to 1000 nM	> 10000 nM	–	–	–	–	–	–	–	–	–
c1cnn(-c2ccc(-c3ccc(O[C@@H]4C[C@H]5CC[C@@H](C4)N5)nn3)c3scnc23)c1 [Compound 334]	100 to 1000 nM	1000 to 10000 nM	100 to 1000 nM	> 10000 nM	1000 to 10000 nM	> 10000 nM	100 to 1000 nM	> 10000 nM	100 to 1000 nM	100 to 1000 nM	1000 to 10000 nM	–	–	–	–	–	–	–	–	–
CC1(C)CC(Oc2ccc(-c3ccc(-n4cccn4)c4ncsc34)nn2)CC(C)(C)N1 [Compound 335, 4-(pyrazol-1-yl)-7-{6-[(2,2,6,6-tetramethylpiperidin-4-yl)oxy]pyridazin-3-yl}-1,3-benzothiazole]	1000 to 10000 nM	1000 to 10000 nM	1000 to 10000 nM	1000 to 10000 nM	1000 to 10000 nM	1000 to 10000 nM	100 to 1000 nM	1000 to 10000 nM	1000 to 10000 nM	100 to 1000 nM	1000 to 10000 nM	–	–	–	–	–	–	–	–	–
Cn1cc(-c2c(F)cc(-c3ccc(NC4CCNCC4)nn3)c3[nH]ncc23)cn1 [Compound 338]	1000 to 10000 nM	1000 to 10000 nM	1000 to 10000 nM	1000 to 10000 nM	1000 to 10000 nM	1000 to 10000 nM	100 to 1000 nM	> 10000 nM	1000 to 10000 nM	1000 to 10000 nM	1000 to 10000 nM	–	–	–	–	–	–	–	–	–
Cc1ncc(-c2ccc(-c3ccc(N(C)C4CC(C)(C)NC(C)(C)C4)nn3)c3scnc23)o1 [Compound 342]	100 to 1000 nM	100 to 1000 nM	100 to 1000 nM	1000 to 10000 nM	1000 to 10000 nM	1000 to 10000 nM	< 100 nM	1000 to 10000 nM	100 to 1000 nM	100 to 1000 nM	100 to 1000 nM	–	–	–	–	–	–	–	–	–
c1cnn(-c2ccc(-c3ccc(N[C@@H]4C[C@H]5CC[C@@H](C4)N5)nn3)c3scnc23)c1 [Compound 343]	–	100 to 1000 nM	< 100 nM	100 to 1000 nM	100 to 1000 nM	100 to 1000 nM	< 100 nM	100 to 1000 nM	100 to 1000 nM	< 100 nM	100 to 1000 nM	–	–	–	–	–	–	–	–	–
CN(c1ccc(-c2ccc(-n3cccn3)c3ncsc23)nn1)[C@@H]1C[C@H]2CC[C@@H](C1)N2 [Compound 344]	–	100 to 1000 nM	< 100 nM	100 to 1000 nM	100 to 1000 nM	100 to 1000 nM	< 100 nM	100 to 1000 nM	100 to 1000 nM	< 100 nM	100 to 1000 nM	–	–	–	–	–	–	–	–	–
CC(C)(C)NC1CCN(c2ccc(-c3ccc(-c4cn[nH]c4)c4ncsc34)nn2)C1 (stereo not drawn) [Compound 345, N-tert-butyl-1-{6-[4-(1H-pyrazol-4-yl)-1,3-benzothiazol-7-yl]pyridazin-3-yl} pyrrolidin-3-amine]	–	–	–	–	–	–	–	–	–	–	–	1000 to 10000 nM	1000 to 10000 nM	1000 to 10000 nM	1000 to 10000 nM	100 to 1000 nM	1000 to 10000 nM	1000 to 10000 nM	100 to 1000 nM	1000 to 10000 nM
c1cnn(-c2ccc(-c3ccc(N4CCC(NC5CC5)C4)nn3)c3scnc23)c1 (stereo not drawn) [Compound 346, N-cyclopropyl-1-{6-[4-(pyrazol-1-yl)-1,3-benzothiazol-7-yl]pyridazin-3-yl}pyrrolidin-3-amine]	> 10000 nM	> 10000 nM	> 10000 nM	> 10000 nM	> 10000 nM	> 10000 nM	> 10000 nM	> 10000 nM	1000 to 10000 nM	1000 to 10000 nM	> 10000 nM	–	–	–	–	–	–	–	–	–
c1cnn(-c2ccc(-c3ccc(N4CCC(NC5CC5)C4)nn3)c3[nH]ncc23)c1 (stereo not drawn) [Compound 347, N-cyclopropyl-1-{6-[4-(pyrazol-1-yl)-1H-indazol-7-yl]pyridazin-3-yl}pyrrolidin-3-amine]	> 10000 nM	> 10000 nM	> 10000 nM	> 10000 nM	> 10000 nM	> 10000 nM	1000 to 10000 nM	> 10000 nM	1000 to 10000 nM	1000 to 10000 nM	> 10000 nM	–	–	–	–	–	–	–	–	–
Cc1cc(-c2ccc(-c3ccc(O[C@@H]4C[C@H]5CC[C@@H](C4)N5)nn3)c3scnc23)ccn1 [Compound 349]	1000 to 10000 nM	1000 to 10000 nM	1000 to 10000 nM	1000 to 10000 nM	> 10000 nM	1000 to 10000 nM	< 100 nM	1000 to 10000 nM	100 to 1000 nM	100 to 1000 nM	1000 to 10000 nM	–	–	–	–	–	–	–	–	–
Cl.Fc1cc(-c2ccc(NC3CCNCC3)nn2)c2[nH]ncc2c1-c1cn[nH]c1 [Compound 350, 6-[5-fluoro-4-(1H-pyrazol-4-yl)-1H-indazol-7-yl]-N-(piperidin-4-yl)pyridazin-3-amine hydrochloride]	> 10000 nM	> 10000 nM	> 10000 nM	> 10000 nM	> 10000 nM	> 10000 nM	> 10000 nM	> 10000 nM	1000 to 10000 nM	> 10000 nM	> 10000 nM	–	–	–	–	–	–	–	–	–
CN(c1ccc(-c2cc(F)c(-c3cn[nH]c3)c3cn[nH]c23)nn1)[C@@H]1C[C@H]2CC[C@@H](C1)N2 [Compound 351]	–	< 100 nM	< 100 nM	100 to 1000 nM	100 to 1000 nM	100 to 1000 nM	< 100 nM	100 to 1000 nM	100 to 1000 nM	< 100 nM	100 to 1000 nM	–	–	–	–	–	–	–	–	–
c1nc2c(-c3cn[nH]c3)ccc(-c3ccc(N[C@H]4C[C@H]5COC[C@@H](C4)N5)nn3)c2s1 [Compound 353]	> 10000 nM	1000 to 10000 nM	> 10000 nM	1000 to 10000 nM	> 10000 nM	1000 to 10000 nM	1000 to 10000 nM	1000 to 10000 nM	1000 to 10000 nM	1000 to 10000 nM	> 10000 nM	–	–	–	–	–	–	–	–	–
c1nc2c(-c3cn[nH]c3)ccc(-c3ccc(N[C@@H]4C[C@H]5COC[C@@H](C4)N5)nn3)c2s1 [Compound 354, (endo)-N-{6-[4-(1H-pyrazol-4-yl)-1,3-benzothiazol-7-yl]pyridazin-3-yl}-3-oxa-9-azabicyclo[3.3.1]nonan-7-amine]	–	100 to 1000 nM	< 100 nM	100 to 1000 nM	1000 to 10000 nM	100 to 1000 nM	< 100 nM	100 to 1000 nM	100 to 1000 nM	100 to 1000 nM	100 to 1000 nM	–	–	–	–	–	–	–	–	–
CN(c1ccc(-c2ccc(-c3cn[nH]c3)c3ncsc23)nn1)[C@H]1C[C@H]2COC[C@@H](C1)N2 [Compound 355]	1000 to 10000 nM	1000 to 10000 nM	1000 to 10000 nM	1000 to 10000 nM	1000 to 10000 nM	1000 to 10000 nM	1000 to 10000 nM	1000 to 10000 nM	1000 to 10000 nM	1000 to 10000 nM	1000 to 10000 nM	–	–	–	–	–	–	–	–	–
c1nc2c(-c3cn[nH]c3)ccc(-c3ccc(O[C@@H]4C[C@H]5COC[C@@H](C4)N5)nn3)c2s1 [Compound 357]	–	< 100 nM	< 100 nM	100 to 1000 nM	100 to 1000 nM	100 to 1000 nM	< 100 nM	100 to 1000 nM	100 to 1000 nM	< 100 nM	100 to 1000 nM	–	–	–	–	–	–	–	–	–
